Experiments:
Format in all cases: in vivo
CD2F1 male mice [1] = assay: 30-day survival of mice given succinate ester orally before Cobalt-60 irradiation; conditions: 9.5 Gy Cobalt-60, 0.6 Gy/min; oral 0.1 ml of 200 unit/ml 20-24 hours before irradiation
Description: (§1) After radiation, mice were returned to their original cages with free access to food and water. Mice were weighed and monitored for survivors everyday for 30 days. Percentages of survivors at the end of 30 days are used as a measure of the efficacy of γ-tocotrienol in protecting from radiation damage.
0.5 g TS (Sigma, 1210 units/g) was sonicated with 2.85 ml PEG-400 (polyethylene glycol-400) and 0.15 ml of vital-E-placebo, a solubilizing agent (Schering-Plough). The final concentration of TS in the prepared solution is 200 units/ml. At a dose of 800 unit/kg, 1 ml of the prepared solution as described above is sufficient for 8 mice. Vehicle for injection into control mice was prepared exactly as for TS except that 0.5 ml of olive oil was used instead of TS.
Each animal was orally administered 0.1 ml of TS solution (200 unit/ml) or vehicle by using feeding needles with a blobbed head. All administrations were done 20-24 hours before irradiation.
Animals were then placed in well-ventilated Lucite boxes (eight animals in a compartmentalized box) and irradiated in a Cobalt-60 facility at a radiation dose rate of 0.6 Gy/min for total radiation doses of 9, 9.5, and 10 Gy. The radiation doses 9.5 and 10 Gy used are lethal doses. […]
The efficacy of α-tocopherol succinate in protecting from radiation damage is monitored as described in Example 4. […]

CD2F1 male mice [2] = assay: 30-day survival of mice injected s.c. before lethal Cobalt-60 irradiation; conditions: for protective efficacy at higher radiation dose (in words): 11 Gy; for survival at 30 days after irradiation: s.c. injection 20-24 hours before irradiation
Description: CD2F1 male mice, 6-8 weeks old (approximately 25 g), procured from Jackson Labs were used throughout this study and were kept in rooms maintained at 21±0.5° C. Animals on arrival were maintained in quarantine for 10 days during which time serological testing was done for contamination by pathogens. All animals were provided with pellet diet and water ad lib.
A preparation of γ-tocotrienol in a final volume of 1 ml was made by mixing 0.11 ml of γ-tocotrienol with 0.85 ml PEG-400 (polyethylene glycol-400) and 0.05 ml of vital-E-placebo, a solubilizing agent (Schering-Plough). 1 ml of the preparation is sufficient for 8 mice. Final concentration of γ-tocotrienol is 100 mg/ml. Vehicle for injection into control animals was prepared exactly as for γ-tocotrienol except that 0.11 ml of olive oil was used instead of γ-tocotrienol.
(§2) Each animal was injected subcutaneously (at the nape of the neck) with 0.1 ml of either γ-tocotrienol or vehicle preparation. Injections were done 20-24 hours before irradiation.
(§3) Animals were placed in well-ventilated Lucite boxes (8 animals in a compartmentalized box) and irradiated in a Cobalt-60 facility at a radiation dose rate of 0.6 Gy/min for a total radiation dose of 10.5 and 11 Gy. The radiation dose used is a super lethal dose. The LD50/30 radiation dose for this strain of mice is 8.9 Gy with the vehicle alone. The radiation dose and dose rate were the same that had been used for α-tocopherol studies.
as §1

CD2F1 male mice [3] = assay: Body weight of mice after irradiation at 10.5 Gy; conditions: 0.6 Gy per minute, s.c.
Description: as §2, §3, §1
Among the different treatment groups, the untreated mice (Untr, Irrad) and the mice treated with vehicle (Vehicle) started to loose weight again from around day 9 and died by day 15.

[4] = experiment 1, 10.5 Gy Cobalt-60, 0.6 Gy/min, 8 mice
[5] = experiment 2, 10.5 Gy Cobalt-60, 0.6 Gy/min, 8 mice

Row | Compound | survival at 30 days after irradiation (CD2F1 male mice [1]) [%] | protection less than that of γ-tocotrienol (CD2F1 male mice [2]; 10.5 Gy) [%] | protective efficacy at higher radiation dose (in words) (CD2F1 male mice [2]) | survival at 30 days after irradiation (CD2F1 male mice [2]; 11 Gy Cobalt-60, 0.6 Gy/min) | survival at 30 days after irradiation (CD2F1 male mice [2]; [4]) [%] | survival at 30 days after irradiation (CD2F1 male mice [2]; [5]) [%] | protection higher than with α-tocopherol (CD2F1 male mice [2]; 10.5 Gy, both experiments) [%] | survival after irradiation, both experiments together (CD2F1 male mice [2]; 10.5 Gy, given before irradiation) | body weight course after irradiation (in words) (CD2F1 male mice [3])
1 | Cc1c(C)c2c(c(C)c1OC(=O)CCC(=O)O)CC[C@@](C)(CCC[C@H](C)CCC[C@H](C)CCCC(C)C)O2 [α-tocopherol succinate] | 60 |  |  |  |  |  |  |  | 
2 | Cc1c(C)c2c(c(C)c1O)CC[C@@](C)(CCC[C@H](C)CCC[C@H](C)CCCC(C)C)O2 [α-tocopherol, reference compound] |  | 25 | not effective | no survivors | 75 | 50 |  |  | 
3 | γ-tocotrienol |  |  | better radioprotectant than α-tocopherol | 40% | 100 | 75 | 25 | 75%-100 | continued to gain weight and did not die from the irradiation
